Consider 1 compound from patent publication US20140213576A1, “NOVEL COMPOUND USEFUL FOR THE TREATMENT OF DEGENERATIVE AND INFLAMMATORY DISEASES” (GALAPAGOS NV, priority 2013, published 2014).

pIC50, pKi: −log10 of the molar value. Several values for one entry are separate records, joined by “and”; a condition that tells them apart may be missing. Equal values may be shown once.

The target in assay [1] is T1, Recombinant human JAK1 (catalytic domain, amino acids 866-1154) (Homo sapiens, UniProt P23458).
T1 construct: Recombinant human JAK1 (catalytic domain, amino acids 866-1154; catalog number PV4774); purchased Invitrogen PV4774
T1 sequence (P23458 866-1154): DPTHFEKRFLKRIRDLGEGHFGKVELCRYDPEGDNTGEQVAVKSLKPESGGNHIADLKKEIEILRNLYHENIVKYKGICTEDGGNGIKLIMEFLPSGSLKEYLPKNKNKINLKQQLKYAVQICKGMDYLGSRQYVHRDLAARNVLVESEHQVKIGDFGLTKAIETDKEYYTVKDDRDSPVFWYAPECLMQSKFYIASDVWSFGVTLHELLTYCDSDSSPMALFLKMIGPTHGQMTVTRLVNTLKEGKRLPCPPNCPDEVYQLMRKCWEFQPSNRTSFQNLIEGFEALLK
The assay is described as follows: JAK1 Ulight-JAK1 peptide assay. It counts as biochemical. The procedure:
Recombinant human JAK1 (catalytic domain, amino acids 866-1154; catalog number PV4774) was purchased from Invitrogen. 1 ng of JAK1 was incubated with 20 nM Ulight-JAK1(tyr1023) peptide (Perkin Elmer catalog number TRF0121) in kinase reaction buffer (25 mM MOPS pH6.8, 0.01% Brij-35, 5 mM MgCl2, 2 mM DTT, 7 μM ATP) with or without 4 μL containing test compound or vehicle (DMSO, 1% final concentration), in a total volume of 20 μL, in a white 384 Opti plate (Perkin Elmer, catalog number 6007290). After 60 min at room temperature, reactions were stopped by adding 20 μL/well of detection mixture (1× detection buffer (Perkin Elmer, catalog number CR97-100C), 0.5 nM Europium-anti-phosphotyrosine (PT66) (Perkin Elmer, catalog number AD0068), 10 mM EDTA). Readout is performed using the Envision with excitation at 320 nm and measuring emission at 615 nm (Perkin Elmer). Kinase activity was calculated by subtracting relative fluorescence units (RFU) obtained in the presence of a positive control inhibitor (10 μM staurosporine) from RFU obtained in the presence of vehicle. The ability of a test compound to inhibit this activity was determined as:
Percentage inhibition=((RFU determined for sample with test compound present−RFU determined for sample with positive control inhibitor) divided by (RFU determined in the presence of vehicle−RFU determined for sample with positive control inhibitor))*100.
Dose dilution series were prepared for the compounds enabling the testing of dose-response effects in the JAK1 assay and the calculation of the IC50 for the compound. Each compound is routinely tested at concentration of 20 μM followed by a ⅕ serial dilution, 10 points in a final concentration of 1% DMSO. […] The data are expressed as the average IC50 from the assays±standard error of the mean.

The test system of a further assay is CTLL2 (ATCC TIB-214). In words: CTLL2 viability assay. It counts as cell-based. Conditions: IL2-dependent viability, ATP-lite, individual determinations. The method, then: The protocol describes the methods to analyse the activity of compounds on the ability to sustain the IL2-dependent viability of CTLL2 (ATCC TIB-214).
Negative control is a DMSO dilution, positive control at 10 μM. Final DMSO concentration is 0.1%.

The next assay relates to HeLa cells. In words: JAK-STAT signalling assay (OSM-triggered pSTAT1(2)-luciferase reporter). Format: cell-based. Conditions: human OSM 33 ng/mL, STAT1 luciferase reporter, individual determinations. The method, then:
HeLa cells were maintained in Dulbecco's Modified Eagle's Medium (DMEM) containing 10% heat inactivated fetal calf serum, 100 U/mL penicillin and 100 μg/mL streptomycin. HeLa cells were used at 70% confluence for transfection. 20,000 cells in 87 μL cell culture medium were transiently transfected with 40 ng pSTAT1(2)-luciferase reporter (Panomics), 8 ng of LacZ reporter as internal control reporter and 52 ng of pBSK using 0.32 μL Jet-PEI (Polyplus) as transfection reagent per well in 96-well plate format. After overnight incubation at 37° C., 5% CO2, transfection medium was removed. 81 μL of DMEM+1.5% heat inactivated fetal calf serum was added. […]
40 μL of cell lysate was used to read β-galactosidase activity by adding 180 μL β-Gal solution (30 μL ONPG 4 mg/mL+150 μL β-Galactosidase buffer (0.06 M Na2HPO4, 0.04 M NaH2PO4, 1 mM MgCl2)) for 20 min. The reaction was stopped by addition of 50 μL Na2CO3 1 M. Absorbance was read at 405 nm.
Luciferase activity was measured using 40 μL cell lysate plus 40 μL of Steadylite® as described by the manufacturer (Perkin Elmer), on the Envision (Perkin Elmer). […]
Percentage inhibition=((fluorescence determined in the presence of vehicle−fluorescence determined for sample with test compound present) divided by (fluorescence determined in the presence of vehicle−fluorescence determined for sample without trigger))[…]. […]
Background: Reporter assays use an easily measured gene product as a stand-in for the process of interest.

The target of a further assay is T2, JAK2 (Homo sapiens, UniProt O60674).
T2 construct: Recombinant human JAK2 catalytic domain (amino acids 808-1132; catalog number PV4210); purchased Invitrogen PV4210
T2 sequence (O60674 808-1132): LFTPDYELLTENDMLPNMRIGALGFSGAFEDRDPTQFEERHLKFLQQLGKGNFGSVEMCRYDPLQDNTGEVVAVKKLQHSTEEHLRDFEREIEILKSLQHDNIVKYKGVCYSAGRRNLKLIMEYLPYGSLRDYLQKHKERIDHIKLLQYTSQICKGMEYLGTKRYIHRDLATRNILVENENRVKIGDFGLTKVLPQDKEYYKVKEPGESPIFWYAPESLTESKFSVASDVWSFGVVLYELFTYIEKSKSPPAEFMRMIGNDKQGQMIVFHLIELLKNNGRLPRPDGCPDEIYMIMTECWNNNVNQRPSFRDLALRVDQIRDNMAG
In words: JAK2 Ki determination assay (kinase tracer 236 binding). Conditions: binding experiment, 25 nM kinase tracer 236; read-out: Ki against JAK2. The procedure: JAK2 (Invitrogen, PV4210) was used at a final concentration of 5 nM. The binding experiment was performed in 50 mM Hepes pH 7.5, 0.01% Brij-35, 10 mM MgCl2, 1 mM EGTA using 25 nM kinase tracer 236 (Invitrogen, PV5592) and 2 nM Eu-anti-GST (Invitrogen, PV5594) with varying compound concentrations. Detection of tracer was performed according to the manufacturer's procedure.

One may read the pIC50 as −log10 of the IC50, conventionally taken in molar units. The term pKi denotes −log10 of the Ki, conventionally taken in molar units.

As to `CCc1cc(C2CN(S(C)(=O)=O)C2)ncc1N(C)c1cc2c(cn1)ncn2C` [Compound 1, [4-Ethyl-6-(1-methanesulfonyl-azetidin-3-yl)-pyridin-3-yl]-methyl-(1-methyl-1H-imidazo[4,5-d]pyridin-6-yl)-amine], in assay [1], the “selectivity for JAK1 vs the other JAK family members (JAK2, JAK3, and TYK2)” value is “at least 10 fold”. The pIC50 in assay [1] (Ulight-JAK1(tyr1023) peptide, 7 μM ATP, individual determinations, read-out: IC50 against JAK1) was 8.18 and 8.11 and 7.89 and 8.35 and 7.99 and 8.04 and 8.27 and 8.08 and 8.03 and 8.16; with CTLL2 (ATCC TIB-214) (24 h, listed as compound of the invention), 5.42; in the assay with CTLL2 (ATCC TIB-214) (Mus musculus, CTLL-2, 24 h) it was 5.13; in the assay with HeLa cells (Homo sapiens, HeLa) it was 5.78; with HeLa cells (listed as compound of the invention), 5.78. The “JAK1 selectivity vs JAK2” value in assay [1] (vs JAK2) was over 15 fold. The “JAK1 selectivity vs JAK3” value in assay [1] (vs JAK3) was over 70 fold. In addition, the “JAK1 selectivity vs TYK2” value in assay [1] (vs TYK2) is over 80 fold. For the same compound, at JAK2, the pKi was 7.20.
